# “And” between values parts separate entries of the source, which are not always exact repeats. Identical values can stand only once. Toxic doses and inconclusive results are not listed. Square brackets hold non-standard residues; d marks the D form. Peptide text beside a SMILES is read from it. Ac5c = NC1(C(=O)O)CCCC1
# Test system: L1210 leukemia ip in BDF1 mice, survival T/C
# Assay: NCI In Vivo Anticancer Drug Screen. Data for tumor model L1210 Leukemia (intraperitoneal) in B6D2F1 (BDF1) mice
# Conditions: endpoint: mean survival time, higher = longer survival
# Summary of the method: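 In this screen, tumor-bearing mice given compound are compared to those given vehicle, and their survival values are reported as a treated-to-control quotient.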
# [1] = dose: 100.0 mg/kg/injection, schedule: Q01DX009 (ip), vehicle: Klucel (hydroxypropylcellulose) (HPC)
# [2] = dose: 100.0 mg/kg/injection, schedule: Q04DX003 (ip), vehicle: Klucel (hydroxypropylcellulose) (HPC)
# [3] = dose: 200.0 mg/kg/injection, schedule: Q01DX009 (ip), vehicle: Klucel (hydroxypropylcellulose) (HPC)
# [4] = dose: 200.0 mg/kg/injection, schedule: Q04DX003 (ip), vehicle: Klucel (hydroxypropylcellulose) (HPC)
# [5] = dose: 400.0 mg/kg/injection, schedule: Q01DX009 (ip), vehicle: Klucel (hydroxypropylcellulose) (HPC)
# [6] = dose: 400.0 mg/kg/injection, schedule: Q04DX003 (ip), vehicle: Klucel (hydroxypropylcellulose) (HPC)
# [7] = dose: 100.0 mg/kg/injection, schedule: Q04DX003 (ip), vehicle: saline with Tween-80
# [8] = dose: 200.0 mg/kg/injection, schedule: Q04DX003 (ip), vehicle: saline with Tween-80
# [9] = dose: 100.0 mg/kg/injection, schedule: Q01DX001 (ip), vehicle: saline with Tween-80
# [10] = dose: 200.0 mg/kg/injection, schedule: Q01DX001 (ip), vehicle: saline with Tween-80
# [11] = dose: 100.0 mg/kg/injection, schedule: Q01DX001 (ip), vehicle: carboxymethylcellulose (CMC)
# [12] = dose: 200.0 mg/kg/injection, schedule: Q01DX001 (ip), vehicle: carboxymethylcellulose (CMC)
# [13] = dose: 400.0 mg/kg/injection, schedule: Q01DX001 (ip), vehicle: carboxymethylcellulose (CMC)
structure (smiles),measurement,setting,value
O=C(/C(Br)=C/c1ccccc1)/C(Br)=C/c1ccccc1,T/C,"dose: 100.0 mg/kg/injection, schedule: Q01DX001 (ip), vehicle: saline sonified",97 % of control
same,T/C,"dose: 100.0 mg/kg/injection, schedule: Q01DX009 (ip), vehicle: saline with Tween-80",109 % of control
same,T/C,"dose: 200.0 mg/kg/injection, schedule: Q01DX001 (ip), vehicle: saline sonified",98 % of control
same,T/C,"dose: 200.0 mg/kg/injection, schedule: Q01DX009 (ip), vehicle: saline with Tween-80",93 % of control
same,T/C,"dose: 400.0 mg/kg/injection, schedule: Q01DX001 (ip), vehicle: saline sonified",93 % of control
same,T/C,"dose: 400.0 mg/kg/injection, schedule: Q01DX009 (ip), vehicle: saline with Tween-80",94 % of control
CC(=O)c1cccc(NC(=O)Nc2ccc(Nc3ccccc3)cc2)c1,T/C,"dose: 100.0 mg/kg/injection, schedule: Q01DX009 (ip), vehicle: other",103 % of control
same,T/C,"dose: 200.0 mg/kg/injection, schedule: Q01DX009 (ip), vehicle: other",101 % of control
same,T/C,"dose: 400.0 mg/kg/injection, schedule: Q01DX009 (ip), vehicle: other",93 % of control
NCC(=O)NC1(C(=O)O)CCCC1 (H-Gly-[Ac5c]-OH),T/C,"dose: 16.0 mg/kg/injection, schedule: Q01DX Z (ip), vehicle: carboxymethylcellulose (CMC)",104 % of control
same,T/C,"dose: 24.0 mg/kg/injection, schedule: Q01DX Z (ip), vehicle: carboxymethylcellulose (CMC)",109 % of control
same,T/C,"dose: 30.0 mg/kg/injection, schedule: Q01DX Z (ip), vehicle: other",103 % of control
same,T/C,"dose: 36.0 mg/kg/injection, schedule: Q01DX Z (ip), vehicle: carboxymethylcellulose (CMC)",118 % of control
same,T/C,"dose: 54.0 mg/kg/injection, schedule: Q01DX017 (ip), vehicle: saline",157 % of control
same,T/C,"dose: 54.0 mg/kg/injection, schedule: Q01DX Z (ip), vehicle: saline",121 % of control
same,T/C,"dose: 66.0 mg/kg/injection, schedule: Q01DX Z (ip), vehicle: saline",115 % of control
same,T/C,"dose: 100.0 mg/kg/injection, schedule: Q04DX003 (ip), vehicle: saline",103 % of control
same,T/C,"dose: 120.0 mg/kg/injection, schedule: Q01DX Z (ip), vehicle: saline",152 % of control
same,T/C,"dose: 150.0 mg/kg/injection, schedule: Q01DX Z (ip), vehicle: saline",156 % of control
same,T/C,"dose: 180.0 mg/kg/injection, schedule: Q01DX Z (ip), vehicle: carboxymethylcellulose (CMC)",105 % of control
same,T/C,"dose: 200.0 mg/kg/injection, schedule: Q04DX003 (ip), vehicle: saline",124 % of control
same,T/C,"dose: 225.0 mg/kg/injection, schedule: Q01DX Z (ip), vehicle: saline",115 % of control
same,T/C,"dose: 240.0 mg/kg/injection, schedule: Q01DX Z (ip), vehicle: other",124 % of control
same,T/C,"dose: 400.0 mg/kg/injection, schedule: Q04DX003 (ip), vehicle: saline",155 % of control
same,T/C,"dose: 480.0 mg/kg/injection, schedule: Q01DX Z (ip), vehicle: other",88 % of control
Cc1ccc(NC(=O)c2ccc(Cl)cc2Cl)cc1Cl,T/C,[1],96 % of control
same,T/C,[2],104 % of control
same,T/C,[3],91 % of control
same,T/C,[4],97 % of control
same,T/C,[5],94 % of control
same,T/C,[6],95 % of control
Cc1cccc(Cl)c1NC(=O)c1c(Cl)c(Cl)c(Cl)c(Cl)c1C(=O)O,T/C,"dose: 100.0 mg/kg/injection, schedule: Q04DX002 (ip), vehicle: Klucel (hydroxypropylcellulose) (HPC)",110 % of control
same,T/C,"dose: 200.0 mg/kg/injection, schedule: Q04DX002 (ip), vehicle: Klucel (hydroxypropylcellulose) (HPC)",104 % of control
CCCCC#CC(=O)OCCC(C)C,T/C,[7],94 % of control
same,T/C,[8],90 % of control
same,T/C,"dose: 400.0 mg/kg/injection, schedule: Q04DX003 (ip), vehicle: saline with Tween-80",94 % of control
NC(=O)/C(=C\c1ccncc1)c1cccc2ccccc12,T/C,[1],97 % of control
same,T/C,[7],108 % of control
same,T/C,[3],97 % of control
same,T/C,[8],88 % of control
CCOc1ccccc1NC(=O)Nc1ccccc1,T/C,[1],92 % of control
same,T/C,[2],95 % of control
same,T/C,[3],96 % of control
same,T/C,[4],109 % of control
same,T/C,[5],91 % of control
same,T/C,[6],98 % of control
CC1CC(C#N)Nc2ccccc2N1 (stereo not drawn),T/C,"dose: 50.0 mg/kg/injection, schedule: Q01DX001 (ip), vehicle: Klucel (hydroxypropylcellulose) (HPC)",109 % of control
same,T/C,"dose: 50.0 mg/kg/injection, schedule: Q01DX009 (ip), vehicle: Klucel (hydroxypropylcellulose) (HPC)",96 % of control
same,T/C,"dose: 50.0 mg/kg/injection, schedule: Q04DX003 (ip), vehicle: Klucel (hydroxypropylcellulose) (HPC)",98 % of control
same,T/C,"dose: 100.0 mg/kg/injection, schedule: Q01DX001 (ip), vehicle: Klucel (hydroxypropylcellulose) (HPC)",106 % of control
same,T/C,[1],93 % of control and 121 % of control
same,T/C,[2],100 % of control and 104 % of control
same,T/C,"dose: 200.0 mg/kg/injection, schedule: Q01DX001 (ip), vehicle: Klucel (hydroxypropylcellulose) (HPC)",104 % of control
same,T/C,[3],86 % of control
same,T/C,[4],96 % of control and 90 % of control
same,T/C,[6],101 % of control
c1ccc(CCNc2ccc(NCCc3ccccc3)cc2)cc1,T/C,"dose: 75.0 mg/kg/injection, schedule: Q01DX001 (ip), vehicle: Klucel (hydroxypropylcellulose) (HPC)",92 % of control
same,T/C,"dose: 75.0 mg/kg/injection, schedule: Q01DX009 (ip), vehicle: Klucel (hydroxypropylcellulose) (HPC)",97 % of control
same,T/C,"dose: 150.0 mg/kg/injection, schedule: Q01DX001 (ip), vehicle: Klucel (hydroxypropylcellulose) (HPC)",106 % of control
same,T/C,"dose: 150.0 mg/kg/injection, schedule: Q01DX009 (ip), vehicle: Klucel (hydroxypropylcellulose) (HPC)",100 % of control
same,T/C,"dose: 300.0 mg/kg/injection, schedule: Q01DX001 (ip), vehicle: Klucel (hydroxypropylcellulose) (HPC)",97 % of control
same,T/C,"dose: 300.0 mg/kg/injection, schedule: Q01DX009 (ip), vehicle: Klucel (hydroxypropylcellulose) (HPC)",106 % of control
Fc1c(F)c(F)c([Si](c2c(F)c(F)c(F)c(F)c2F)(c2c(F)c(F)c(F)c(F)c2F)c2c(F)c(F)c(F)c(F)c2F)c(F)c1F,T/C,[9],96 % of control
same,T/C,[10],91 % of control
same,T/C,"dose: 400.0 mg/kg/injection, schedule: Q01DX001 (ip), vehicle: saline with Tween-80",86 % of control
CCOCc1cc([N+](=O)[O-])cc([N+](=O)[O-])c1O,T/C,"dose: 5.56 mg/kg/injection, schedule: Q01DX009 (ip), vehicle: saline with Tween-80",90 % of control
same,T/C,"dose: 8.33 mg/kg/injection, schedule: Q01DX009 (ip), vehicle: saline with Tween-80",108 % of control
same,T/C,"dose: 12.5 mg/kg/injection, schedule: Q01DX009 (ip), vehicle: saline with Tween-80",95 % of control
same,T/C,"dose: 18.7 mg/kg/injection, schedule: Q01DX009 (ip), vehicle: saline with Tween-80",104 % of control
same,T/C,"dose: 25.0 mg/kg/injection, schedule: Q01DX009 (ip), vehicle: saline with Tween-80",103 % of control
same,T/C,"dose: 50.0 mg/kg/injection, schedule: Q01DX009 (ip), vehicle: saline with Tween-80",93 % of control
O=C(O)c1ccc(CCc2cccnc2)cc1,T/C,[9],96 % of control
same,T/C,[10],98 % of control
CCCCC(=O)OC1CC2CCC1(C)C2(C)C (stereo not drawn),T/C,[1],102 % of control
same,T/C,[2],96 % of control
same,T/C,[3],102 % of control
same,T/C,[4],96 % of control
same,T/C,[5],104 % of control
same,T/C,[6],100 % of control
CCN(CC)c1cc(C)c2cc(Cc3ccccc3)ccc2n1,T/C,[11],98 % of control
same,T/C,[12],96 % of control
same,T/C,[13],101 % of control
NC(=NC1CCCCC1)c1ccc(C(=O)OCc2ccccc2)cc1,T/C,[11],94 % of control
same,T/C,[12],89 % of control
same,T/C,[13],94 % of control
CC(C)(C)C#N,T/C,"dose: 100.0 mg/kg/injection, schedule: Q01DX001 (ip), vehicle: saline",109 % of control
same,T/C,"dose: 200.0 mg/kg/injection, schedule: Q01DX001 (ip), vehicle: saline",101 % of control
same,T/C,"dose: 400.0 mg/kg/injection, schedule: Q01DX001 (ip), vehicle: saline",95 % of control
CN(C)OC(=O)Nc1cccc(C(=O)ON(C)C)c1,T/C,"dose: 100.0 mg/kg/injection, schedule: Q04DX002 (ip), vehicle: DMSO",99 % of control
same,T/C,"dose: 200.0 mg/kg/injection, schedule: Q04DX002 (ip), vehicle: DMSO",101 % of control
same,T/C,"dose: 400.0 mg/kg/injection, schedule: Q04DX002 (ip), vehicle: DMSO",101 % of control
C/C(=N/NC(N)=S)c1ccc(F)cc1,T/C,"dose: 9.38 mg/kg/injection, schedule: Q01DX009 (ip), vehicle: Klucel (hydroxypropylcellulose) (HPC)",95 % of control
same,T/C,"dose: 18.75 mg/kg/injection, schedule: Q01DX009 (ip), vehicle: Klucel (hydroxypropylcellulose) (HPC)",92 % of control

# Source: PubChem BioAssay AID248 (DTP/NCI, 2004)
